Reference: patent publication US9145426B2, “Pyrrolidine-fused thiadiazine dioxide compounds as BACE inhibitors, compositions, and their use” (Merck Sharp & Dohme Corp., priority 2011, dated 2015)

What was measured:
[1] = target: purified human autoBACE-2 (Homo sapiens, UniProt Q9Y5Z0); test: BACE-2 Assay (BACE-HTRF assay); type: biochemical; conditions: calculated from IC50 using the Cheng-Prusoff equation
Description: DMSO was present at 5% final concentration in the assay. Following laser excitation of sample wells at 320 nm, the fluorescence signal at 620 nm was collected for 400 ms following a 50 μs delay on a RUBYstar HTRF plate reader (BMG Labtechnologies). […] The Ki values were calculated from the IC50 using the Cheng-Prusoff equation.

[2] = target: soluble human BACE1 catalytic domain (Homo sapiens (Human), UniProt P56817); test: BACE1 HTRF FRET Assay; type: biochemical; conditions: calculated from IC50 using the Cheng-Prusoff equation; read-out: BACE-1 Ki
Text: Na^+-Acetate pH 5.0; 1% Brij-35; Glycerol; Dimethyl Sulfoxide (DMSO); Recombinant human soluble BACE1 catalytic domain (>95% pure); APP Swedish mutant peptide substrate (QSY7-APP^swe-Eu): QSY7-[…]-Europium-amide.
A homogeneous time-resolved FRET assay was used to determine IC50 values for inhibitors of the soluble human BACE1 catalytic domain. This assay monitored the increase of 620 nm fluorescence that resulted from BACE1 cleavage of an APPswedish APP^swe mutant peptide FRET substrate (QSY7-[…]-Europium-amide). This substrate contained an N-terminal QSY7 moiety that served as a quencher of the C-terminal Europium fluorophore (620 nm Em). In the absence of enzyme activity, 620 nm fluorescence was low in the assay and increased linearly over 3 hours in the presence of uninhibited BACE1 enzyme. Inhibition of BACE1 cleavage of the QSY7-APP^swe-Eu substrate by inhibitors was manifested as a suppression of 620 nm fluorescence.
Reactions were initiated by addition of 10 μl of 600 nM QSY7-APP^swe-Eu substrate (200 nM final) to give a final reaction volume of 30 μl in a 384 well Nunc HTRF plate. The reactions were incubated at 30° C. for 1.5 hours. The 620 nm fluorescence was then read on a Rubystar HTRF plate reader (BMG Labtechnologies) using a 50 […]s delay followed by a 400 millisecond acquisition time window. Inhibitor IC50 values were derived from non-linear regression analysis of concentration response curves.

Chain of soluble human BACE1 catalytic domain (P56817 75-416): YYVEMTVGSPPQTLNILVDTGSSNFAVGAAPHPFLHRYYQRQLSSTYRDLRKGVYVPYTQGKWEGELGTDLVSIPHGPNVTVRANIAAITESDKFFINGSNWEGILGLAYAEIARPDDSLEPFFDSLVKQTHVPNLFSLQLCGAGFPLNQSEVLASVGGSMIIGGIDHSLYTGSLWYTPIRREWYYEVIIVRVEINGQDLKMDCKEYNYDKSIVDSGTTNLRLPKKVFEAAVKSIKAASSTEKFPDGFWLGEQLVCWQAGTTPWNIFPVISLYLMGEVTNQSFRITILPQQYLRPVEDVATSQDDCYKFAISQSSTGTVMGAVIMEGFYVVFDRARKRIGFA
Chain of purified human autoBACE-2 (Q9Y5Z0 63-518 limits assumed): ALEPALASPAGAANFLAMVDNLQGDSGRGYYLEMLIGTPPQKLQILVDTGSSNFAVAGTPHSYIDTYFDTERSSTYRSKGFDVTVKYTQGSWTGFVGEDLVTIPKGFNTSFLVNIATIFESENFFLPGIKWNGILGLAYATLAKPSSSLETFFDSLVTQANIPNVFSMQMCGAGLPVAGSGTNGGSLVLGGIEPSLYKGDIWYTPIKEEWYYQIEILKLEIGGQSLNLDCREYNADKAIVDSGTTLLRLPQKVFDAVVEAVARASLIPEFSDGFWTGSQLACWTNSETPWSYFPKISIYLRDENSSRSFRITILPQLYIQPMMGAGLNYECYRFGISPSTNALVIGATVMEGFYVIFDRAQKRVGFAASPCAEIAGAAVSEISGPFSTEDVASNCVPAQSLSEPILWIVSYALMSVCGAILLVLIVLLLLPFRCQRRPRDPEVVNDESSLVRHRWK

| SMILES | Ki [1] [nM] | Ki [2] [nM] |
| --- | --- | --- |
| CC(=O)N1CC2[C@](c3cc(NC(=O)c4ccc(F)cn4)ccc3F)(C1)NC(=N)N(C)S2(=O)=O (mixture of isomers) [Ex. 18] | 3.2 | 32 |
| COc1nc(N2CC3[C@](c4cc(NC(=O)c5ccc(F)cn5)ccc4F)(C2)NC(=N)N(C)S3(=O)=O)nc(C)c1F (mixture of isomers) [Ex. 19] | 1.6 | 1.2 |
| CCOCc1cc(OC)nc(N2CC3C(c4ccccc4)(C2)NC(=N)N(C)S3(=O)=O)c1 (racemic) [Ex. 11] | – | 61 |
| COc1nc(N2CC3C(c4ccccc4)(C2)NC(=N)N(C)S3(=O)=O)nc(OC)c1F (racemic) [Ex. 13] | – | 30 |
| CCc1nc(N2CC3C(c4ccccc4)(C2)NC(=N)N(C)S3(=O)=O)nc(OC)c1F (racemic) [Ex. 15] | – | 82 |
| Cc1cccc(N2CC3C(c4ccccc4)(C2)NC(=N)N(C)S3(=O)=O)c1 (racemic) [Ex. 17] | – | 1560 |
| COc1nc(N2C[C@@H]3[C@](c4ccc(F)cc4)(C2)NC(=N)N(C)S3(=O)=O)nc(C)c1F (stereo in doubt) [Ex. 2] | 14 | – |
| COc1nc(N2C[C@@H]3[C@](c4cc(F)ccc4F)(C2)NC(=N)N(C)S3(=O)=O)nc(C)c1F (stereo in doubt) [Ex. 3] | 14 | – |
| COc1nc(N2C[C@@H]3[C@](c4ccccc4F)(C2)NC(=N)N(C)S3(=O)=O)nc(C)c1F (stereo in doubt) [Ex. 4] | 5.4 | – |
| COc1nc(N2C[C@@H]3[C@](c4cc(F)c(F)cc4F)(C2)NC(=N)N(C)S3(=O)=O)nc(C)c1F (stereo in doubt) [Ex. 5] | 19 | 32 |
| COCc1cc(OC)nc(N2C[C@@H]3[C@](c4cc(F)ccc4F)(C2)NC(=N)N(C)S3(=O)=O)c1 (stereo in doubt) [Ex. 9] | 1.7 | – |
| COc1nc(N2C[C@@H]3[C@](c4ccccc4)(C2)NC(=N)N(C)S3(=O)=O)nc(C)c1F [Ex. 1] | 16 | – |
| COc1nc(N2CC3[C@](c4ccc(F)cc4F)(C2)NC(=N)N(C)S3(=O)=O)nc(C)c1F (some centres unmarked) [Ex. 6] | 8.5 | – |
| COCc1cc(OC)nc(N2CC3[C@](c4cc(F)c(F)cc4F)(C2)NC(=N)N(C)S3(=O)=O)c1 (some centres unmarked) [Ex. 7] | 3.2 | 7 |
| COCc1cc(OC)nc(N2CC3[C@](c4ccccc4F)(C2)NC(=N)N(C)S3(=O)=O)c1 (some centres unmarked) [Ex. 8] | 5 | 7 |
